The subject of this test is spinal cord injury site tissue. Description: Immunofluorescence staining of CSPG, CD206, GFAP, NF200 after spinal cord injury. The test is classed as in vivo, rat. To be noted: tail vein injection. Here is the method: For the present experiment, male white mice (Sprague-Dawley 240-250 g, 7 weeks, 10 mice) were under general anesthetics by an intraperitoneal injection of Ketamin (80 mg/kg, Yuhan Corporation) and Rompun (7.4 mg/kg, Bayer Korea Corporation). Laminectomy was performed at spine T9-10 level to expose a spinal cord keeping intact dura. And then, rat was put on Spinal cord dropping device (NYU); spine processes at T8 and T11 sites were fixed by using a clamp, respectively; then, a rod (diameter 2 mm, weight 10 g) was dropped from 25 mm height vertical to dorsal part of spinal cord followed by suturing injury site muscle and skin. The rat of Sham-operated control group was performed only laminectomy at same area without damaging spinal cord injury (marked by ‘sham” in figures; hereinafter, the same as above).
Substance P (marked by ‘SP’ in figures; hereinafter, the same as above) dissolved in saline of 5 nmol/kg concentration was injected through tail vein at immediately, 24 hours, and 48 hours after a spinal cord injury for experimental groups. At sham control group, same volume of saline (marked by ‘vehicle’ in figures; hereinafter, the same as above) without Substance P was injected at same time points. Operation were performed on an electric heating pad of 37° C., and then rat were transferred to cage after awake from the anesthetic. • (2) Preparation of Tissue
Then, perfusion was performed by opening the of heart and pumping 200 ml of a physiological saline and 4% paraformaldehyde (Sigma) through right atrium of heart. Then, a segment of spinal cord with injury site was removed and put in 4% paraformaldehyde at 4° C. for 6 hours. Subsequently, spinal cords were washed with saline, and placed in 30% sucrose (Sigma) solution at 4° C. overnight. Next day, spinal cords were cut in a length of 1.5 cm in which the injured site is localized in epicenter followed by embedding in OCT compound (optimal cutting temperature compound, Sakura). The fixed tissues were cut in a thickness of 10 μm (Longitudinal section) or 20 μm (cross section) with Cryostat (Leica) and attached to slide. Finally, slides were stored at −80° C. • (3) Immunofluorescence Staining
The selected sections for immunofluorescence staining were washed with saline for three times, and blocked with 10% horse serum (Jackson ImmunoResearch) for 1 hour at a room temperature. ED1 antibody (1:200, Milipore), a marker for activated microglia/macrophage, was treated and placed at 4° C. overnight. Next day, slides were washed with saline, and treated with a secondary antibody conjugated with Alexa Fluor 488 (1:400, Invitrogen) or cyanine 3 (1:500, Jackson ImmunoResearch) for 1 hour at room temperature. […]

[1] abbreviates: two weeks after spinal cord injury.

As for Substance P, the GFAP-positive cells distribution entry (after spinal cord injury) was “excluded from CD206-positive spinal cord injury site”. For the same substance, under setting [1], the “CD206 and ED1 double-positive cells” value is listed as “gathered around an injury site”; the “CSPG-positive signal around an injury site” value is “significantly decreased”. In addition, where the note is “vs control, exposed to CD206-positive cell field”, the neurofilament protein entry is given as “well preserved”.

(Values after US9078851B2, “Composition for preventing or treating a spinal cord injury” (UNIVERSITY-INDUSTRY COOPERATION GROUP OF KYUNG HEE, priority 2009, dated 2015).)
